molecular target: T1, PIP4K2C (Homo sapiens, UniProt Q8TBX8); assay: HiBiT PIP4K2C degradation assay in MOLT-4 cells (endogenous PIP4K2C C-terminally tagged with HiBiT); assay type: cell-based; set-up: untagged in primary human PBMCs and monocyte-derived dendritic cells; settings: 6 hours of incubation time, rather than 24 hours; MOLT-4, top concentration 10 micromolar; read-out: HiBIT-degradation MOLT4 PIP4k2C DC50 (6 hours, marked *)
T1 sequence (Q8TBX8 1-421): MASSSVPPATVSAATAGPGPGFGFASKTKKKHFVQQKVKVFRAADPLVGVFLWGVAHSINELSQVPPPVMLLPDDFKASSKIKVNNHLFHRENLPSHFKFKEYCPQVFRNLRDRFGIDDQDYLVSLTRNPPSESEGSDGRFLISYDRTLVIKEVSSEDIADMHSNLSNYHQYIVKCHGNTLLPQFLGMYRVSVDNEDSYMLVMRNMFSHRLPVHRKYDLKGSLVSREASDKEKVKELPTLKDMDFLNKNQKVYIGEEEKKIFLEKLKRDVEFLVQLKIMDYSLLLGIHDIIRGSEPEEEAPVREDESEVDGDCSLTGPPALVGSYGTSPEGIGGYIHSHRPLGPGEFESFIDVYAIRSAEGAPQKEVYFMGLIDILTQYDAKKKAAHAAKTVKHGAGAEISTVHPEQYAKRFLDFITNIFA
In short: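 DC50 derived by Hill fit of luminescence from Nano-Glo HiBiT lytic detection. Cells were HiBiT knock-in MOLT-4 (C-terminal tag on endogenous PIP4K2C), exposed 6 h or 24 h at 37 C to compound, top concentration 10 micromolar, 3-fold steps, 10 points, duplicates.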

Row | DC50 [nM] | Structure (SMILES)
1 | < 500 | O=C1CC[C@@H](Nc2ccc(N3CCC(N4CCC(NC(=O)[C@H]5CC[C@H](Nc6ncc(F)c(-c7cccc(-n8ccccc8=O)c7)n6)CC5)CC4)CC3)c(F)c2)C(=O)N1 [Compound 440, trans-N-(1′-(4-(((R)-2,6-dioxopiperidin-3-yl)amino)-2-fluorophenyl)-[1,4′-bipiperidin]-4-yl)-4-((5-fluoro-4-(3-(2-oxopyridin-1(2H)-yl)phenyl)pyrimidin-2-yl)amino)cyclohexane-1-carboxamide]
2 | < 500 | O=C1CCC(Nc2ccc(N3CCC(N4CCC(O)(C(=O)N[C@H]5CC[C@H](Nc6ncc(F)c(-c7cccc(-n8ccccc8=O)c7)n6)CC5)CC4)CC3)c(F)c2)C(=O)N1 (stereo partly drawn) [Compound 444, trans-1′-(4-((2,6-dioxopiperidin-3-yl)amino)-2-fluorophenyl)-N-(4-((5-fluoro-4-(3-(2-oxopyridin-1(2H)-yl)phenyl)pyrimidin-2-yl)amino)cyclohexyl)-4-hydroxy-[1,4′-bipiperidine]-4-carboxamide]
3 | < 500 | O=C1CCC(Nc2ccc(C3CCN([C@H]4CC[C@H](C(=O)N[C@H]5CC[C@H](Nc6ncc(F)c(-c7cccc(N8CCOC8=O)c7)n6)CC5)CC4)CC3)c(F)c2)C(=O)N1 (stereo partly drawn) [Compound 446, trans-(1r,4R)-4-(4-(4-((2,6-dioxopiperidin-3-yl)amino)-2-fluorophenyl)piperidin-1-yl)-N-((1r,4R)-4-((5-fluoro-4-(3-(2-oxooxazolidin-3-yl)phenyl)pyrimidin-2-yl)amino)cyclohexyl)cyclohexane-1-carboxamide]
4 | < 500 | O=C1CCC(Nc2ccc(C3CCN([C@H]4CC[C@H](C(=O)N[C@H]5CC[C@H](Nc6ncc(F)c(-c7cccc(N8CCCCC8=O)c7)n6)CC5)CC4)CC3)c(F)c2)C(=O)N1 (stereo partly drawn) [Compound 447, trans-(1r,4R)-4-(4-(4-((2,6-dioxopiperidin-3-yl)amino)-2-fluorophenyl)piperidin-1-yl)-N-((1r,4R)-4-((5-fluoro-4-(3-(2-oxopiperidin-1-yl)phenyl)pyrimidin-2-yl)amino)cyclohexyl)cyclohexane-1-carboxamide]
5 | < 500 | O=C1CCC(Nc2ccc(N3CCN([C@H]4CC[C@H](C(=O)N[C@H]5CC[C@H](Nc6ncc(F)c(-c7cccc(-c8ccc[nH]c8=O)c7)n6)CC5)CC4)CC3)c(F)c2)C(=O)N1 (stereo partly drawn) [Compound 450, trans-4-(4-(4-((2,6-dioxopiperidin-3-yl)amino)-2-fluorophenyl)piperazin-1-yl)-N-(trans-4-((5-fluoro-4-(3-(2-oxo-1,2-dihydropyridin-3-yl)phenyl)pyrimidin-2-yl)amino)cyclohexyl)cyclohexane-1-carboxamide]
6 | < 500 | O=C1CCC(Nc2ccc(N3CCC(N4CCC(NC(=O)[C@H]5CC[C@H](Nc6ncc(F)c(-c7cccc(-c8ccc[nH]c8=O)c7)n6)CC5)CC4)C(F)(F)C3)c(F)c2)C(=O)N1 (stereo partly drawn) [Compound 451, trans-N-(1′-(4-((2,6-dioxopiperidin-3-yl)amino)-2-fluorophenyl)-3′,3′-difluoro-[1,4′-bipiperidin]-4-yl)-4-((5-fluoro-4-(3-(2-oxo-1,2-dihydropyridin-3-yl)phenyl)pyrimidin-2-yl)amino)cyclohexane-1-carboxamide]
7 | < 500 | O=C1CCC(Nc2ccc(N3CCC(N4CCC(NC(=O)[C@H]5CC[C@H](Nc6ncc(F)c(-c7cccc(-n8ccccc8=O)c7)n6)CC5)CC4)C(F)C3)c(F)c2)C(=O)N1 (stereo partly drawn) [Compound 452, trans-N-(1′-(4-((2,6-dioxopiperidin-3-yl)amino)-2-fluorophenyl)-3′-fluoro-[1,4′-bipiperidin]-4-yl)-4-((5-fluoro-4-(3-(2-oxopyridin-1(2H)-yl)phenyl)pyrimidin-2-yl)amino)cyclohexane-1-carboxamide]
8 | < 500 | O=C1CCC(Nc2ccc(N3CCC(N4CCC(NC(=O)[C@H]5CC[C@H](Nc6ncc(F)c(-c7cccc(-c8ccc[nH]c8=O)c7)n6)CC5)CC4)C(F)C3)c(F)c2)C(=O)N1 (stereo partly drawn) [Compound 453, trans-N-(1′-(4-((2,6-dioxopiperidin-3-yl)amino)-2-fluorophenyl)-3′-fluoro-[1,4′-bipiperidin]-4-yl)-4-((5-fluoro-4-(3-(2-oxo-1,2-dihydropyridin-3-yl)phenyl)pyrimidin-2-yl)amino)cyclohexane-1-carboxamide]
9 | < 500 | O=C1CC[C@@H](Nc2ccc(C3CCN([C@H]4CC[C@H](C(=O)N[C@H]5CC[C@H](Nc6ncc(F)c(-c7cccc(-c8ccc[nH]c8=O)c7)n6)CC5)CC4)CC3)c(F)c2)C(=O)N1 [Compound 454, trans-4-(4-(4-(((R)-2,6-dioxopiperidin-3-yl)amino)-2-fluorophenyl)piperidin-1-yl)-N-(trans-4-((5-fluoro-4-(3-(2-oxo-1,2-dihydropyridin-3-yl)phenyl)pyrimidin-2-yl)amino)cyclohexyl)cyclohexane-1-carboxamide]
10 | < 500 | O=C1CC[C@H](Nc2ccc(C3CCN([C@H]4CC[C@H](C(=O)N[C@H]5CC[C@H](Nc6ncc(F)c(-c7cccc(-n8ccccc8=O)c7)n6)CC5)CC4)CC3)c(F)c2)C(=O)N1 [Compound 457, (1S,4R)-4-(4-(4-(((S)-2,6-dioxopiperidin-3-yl)amino)-2-fluorophenyl)piperidin-1-yl)-N-((1r,4R)-4-((5-fluoro-4-(3-(2-oxopyridin-1(2H)-yl)phenyl)pyrimidin-2-yl)amino)cyclohexyl)cyclohexane-1-carboxamide]
11 | < 500 | O=C1CCC(Nc2ccc(N3CCN(CC4(O)CCN(C(=O)[C@H]5CC[C@H](Nc6ncc(F)c(-c7cccc(-c8ccccc8)c7)n6)CC5)CC4)CC3)c(F)c2)C(=O)N1 (stereo partly drawn) [Compound 463, trans-3-[3-fluoro-4-[4-[[1-[4-[[5-fluoro-4-(3-phenylphenyl)pyrimidin-2-yl]amino]cyclohexanecarbonyl]-4-hydroxy-4-piperidyl]methyl]piperazin-1-yl]anilino]piperidine-2,6-dione]
12 | < 500 | O=C1CCC(Nc2ccc(C3CCN(CC4(O)CCN(C(=O)[C@H]5CC[C@H](Nc6ncc(F)c(-c7cccc(-c8ccccc8)c7)n6)CC5)CC4)CC3)c(F)c2)C(=O)N1 (stereo partly drawn) [Compound 464, 3-((4-(1-((1-(trans-4-((4-([1,1′-biphenyl]-3-yl)-5-fluoropyrimidin-2-yl)amino)cyclohexane-1-carbonyl)-4-hydroxypiperidin-4-yl)methyl)piperidin-4-yl)-3-fluorophenyl)amino)piperidine-2,6-dione]
13 | < 500 | O=C1CCC(Nc2ccc(C3CCN(CC4CCN(C(=O)N5CCC(Nc6ncc(F)c(-c7cccc(-n8ccccc8=O)c7)n6)CC5)CC4)CC3)c(F)c2)C(=O)N1 (centres unmarked) [Compound 465, 3-((3-fluoro-4-(1-((1-(4-((5-fluoro-4-(3-(2-oxopyridin-1 (2H)-yl)phenyl)pyrimidin-2-yl)amino)piperidine-1-carbonyl)piperidin-4-yl)methyl)piperidin-4-yl)phenyl)amino)piperidine-2,6-dione]
14 | < 500 | O=C1CCC(Nc2ccc(C3CCN(CC4CCN(C(=O)[C@H]5CC[C@H](Nc6ncc(F)c(-c7cccc(-c8ccccc8)c7)n6)CC5)CC4)CC3)c(F)c2)C(=O)N1 (stereo partly drawn) [Compound 466, 3-((4-(1-((1-(trans-4-((4-([1,1′-biphenyl]-3-yl)-5-fluoropyrimidin-2-yl)amino)cyclohexane-1-carbonyl)piperidin-4-yl)methyl)piperidin-4-yl)-3-fluorophenyl)amino)piperidine-2,6-dione]

Reference: patent publication US20260355196A1, “INHIBITORS AND DEGRADERS OF PIP4K PROTEIN” (Larkspur Biosciences, Inc., priority 2023, published 2026)
